“And” between values parts separate entries of the source, which are not always exact repeats. Identical values can stand only once.
Columns and labels:
[1] = tested on: cells expressing pluripotency markers derived from human embryonic stem cells; experiment: MTS viability (toxicity) assay of cells expressing pluripotency markers; type: cell-based; parameters: Raw data (duplicate), first replicate / Average: unit not given here; details: for viability at 10 µM: Homo sapiens, Embryonic stem cell; for viability at 10 µM / % Control: viability of cells expressing pluripotency markers, relative to control; for Raw data (duplicate), first replicate / Raw data (duplicate), second replicate: MTS viability assay raw reading; for Raw data (duplicate), first replicate: replicate 1; for Raw data (duplicate), second replicate: replicate 2; for Average: average of duplicate MTS raw readings
Procedure: Derivation and maintenance of cells expressing pluripotency makers was conducted as has been described in Example 2. Cells were grown in DMEM:F12 supplemented with 2% FCS (Invitrogen), 100 ng/ml Activin A, 20 ng/ml Wnt-3a, and 50 ng/ml IGF (R&D Biosystems). Cells were seeded at a density of 10,000 cells/cm^2 on Falcon polystyrene flasks and grown in monolayer culture at 37° C., 5% CO2, low oxygen. After reaching 60-70% confluence, cells were passed by washing the monolayer with PBS and incubating with TrypLE (Invitrogen) for 3-5 minutes to allow detachment and single cell dispersal.
Screening was conducted using test compounds from a proprietary library of small molecules selected for their ability to inhibit GSK-3B enzyme activity. Compounds from this library were made available as 1 mM stocks, in a 96-well plate format in 50 mM HEPES, 30% DMSO. For assay, cells expressing pluripotency markers were washed, counted, and plated in normal culture medium at a seeding density of 20,000 cells per well in 96-well clear-bottom, dark-well plates (Costar). This seeding density was previously determined to yield optimal monolayer formation in overnight culture. On the following day, culture medium was removed, cell monolayers were rinsed three times with PBS, and test compounds were added to the wells in 80 μl aliquots, each diluted into assay medium at a final assay concentration of 10 μM. On day 2 of the assay, medium was removed from each well and replaced with a fresh aliquot of test compounds diluted into assay medium. Assay medium on days 1 and 2 of culture consisted of DMEM:F12 supplemented with 0.5% FCS and 100 ng/ml Activin A. On days 3 and 4 of culture, medium was removed from each well and replaced with DMEM:F12 supplemented with 2% FCS and 100 ng/ml Activin A (no test compound). On day 4 of assay, 15 μl of MTS (Promega) was added to each well and plates were incubated at 37° C. for 1.5 to 4 hours prior to reading optical density at 490 nm on a SpectraMax (Molecular Devices) instrument. Statistical measures consisting of mean, standard deviation, and coefficient of variation were calculated for each duplicate set. Toxicity was calculated for each test well relative to a positive control (wells treated with Activin A and Wnt3a on days 1 and 2 of culture).
A larger proportion of the compounds have minimal or no measurable toxicity in this cell-based assay.
A small panel of select compounds was repeat tested over a narrow dose titration range, again using cells expressing pluripotency markers in a similar assay as described above.

[2] = tested on: human embryonic stem cells (H9 or H1 lines); experiment: Plate reader (MTS) proliferation assay; type: cell-based; details: for Average: average of replicate raw data; for activity at 10 µM: Homo sapiens, Embryonic stem cell, 96 h; for activity at 10 µM / % Control Value (proliferation): 10 μM test compound with 100 ng/ml activin A on days 1-2, MTS OD490 on day 4, vs Activin A/Wnt3a positive control, strong and moderate hits; for Raw Data: replicate wells, plate reader proliferation screen of GSK-3B inhibitors
Procedure: Maintenance of human embryonic stem cells (H9 or H1 lines) was conducted as described in Example 1. Colonies of cells were maintained in an undifferentiated, pluripotent state with passage on average every four days. Passage was performed by exposing cell cultures to a solution of collagenase (1 mg/ml; Sigma-Aldrich) for 10 to 30 minutes at 37° C. followed by gentle scraping with a pipette tip to recover cell clusters. Clusters were allowed to sediment and washed to remove residual collagenase. Cell clusters were split at a ratio of 1:3 monolayer area for routine culture or a 1:1 ratio for immediate assay. The human embryonis stem cell lines used for these examples were maintained at passage numbers less than 50 and routinely evaluated for normal karyotypic phenotype as well as absence of mycoplasm contamination.
Cell clusters used in assay were evenly resuspended in normal culture medium and plated into MATRIGEL-coated 96-well Packard VIEWPLATES (PerkinElmer) in volumes of 100 μl/well. MEF conditioned medium supplemented with 8 ng/ml bFGF) was used for initial plating and recovery. Daily feeding was conducted by aspirating spent culture medium from each well and replacing with an equal volume of fresh medium. Plates were maintained at 37° C. in a humidified box, 5% CO2 throughout the duration of assay.
Primary screening assays were initiated by aspirating culture medium from each well followed by three washes in PBS to remove residual growth factors and serum. Test volumes of 80-100 μl per well were added back containing DMEM:F12 base medium (Invitrogen) supplemented with 0.5% FCS (HyClone) and 100 ng/ml activin A (R&D Biosystems) and 10 μM test compound. Positive control wells contained the same medium substituting 10-20 ng/ml Wnt3a (R&D Biosystems). Negative control wells contained base medium with 0.5% FCS without activin A or Wnt3a. Screening compounds were tested in triplicate. Wells were aspirated and fed again with identical solutions on day 2 of the assay. On days 3 and 4, all assay wells were aspirated and converted to DMEM:F 12 supplemented with 2% FCS and 100 ng/ml activin A with the exception of negative control wells which were maintained in DMEM:F12 base medium with 2% FCS.
On day 4 of assay, 15-20 μl of MTS (Promega) was added to each well and plates were incubated at 37° C. for 1.5 to 4 hours. Densitometric readings at OD490 were determined using a Molecular Devices spectrophotometer plate reader. Average readings for replicate sets were calculated along with standard deviation and coefficient of variation. Experimental wells were compared to the Activin A/Wnt3a positive control to calculate a percent control value as a measure of proliferation.
Strong hits are defined as greater than or equal to 120% of control values; moderate hits are defined as falling within the interval of 60-120% of control values. A significant number of compounds induce a proliferative response in this assay.

Compound | viability at 10 µM [1] [%] | Raw data (duplicate), first replicate [1] | Raw data (duplicate), second replicate [1] | Average [1] | Average [2] | activity at 10 µM [2] [%] | % Control [1] | % Control Value (proliferation) [2] | Raw Data [2]
O=C1NC(=O)C(c2cccc3c2oc2ccccc23)=C1c1cn(CCCO)c2ncccc12 [Compound 33, 3-Dibenzo[b,d]furan-4-yl-4-[1-(3-hydroxypropyl)-1H-pyrrolo[2,3-b]pyridin-3-yl]-1H-pyrrole-2,5-dione] | 45.2 | 0.315 | 0.542 | 0.428 | 0.1889 | – | – | – | –
O=C1NC(=O)C(c2cccc3c2sc2ccccc23)=C1c1cn(CCCO)c2ncccc12 [Compound 34, 3-Dibenzo[b,d]thien-4-yl-4-[1-(3-hydroxypropyl)-1H-pyrrolo[2,3-b]pyridin-3-yl]-1H-pyrrole-2,5-dione] | 83.5 | 0.750 | 0.624 | 0.687 | 0.1420 | – | – | – | –
COc1ncc(C2=C(c3cn(CCCO)c4ncccc34)C(=O)NC2=O)c(OC)n1 [Compound 48, 3-[2,4-Bis(methyloxy)pyrimidin-5-yl]-4-[1-(3-hydroxypropyl)-1H-pyrrolo[2,3-b]pyridin-3-yl]-1H-pyrrole-2,5-dione] | – | – | – | – | – | 148 | – | – | –
COCCCn1cc(C2=C(c3ccccc3OC)C(=O)NC2=O)c2cnccc21 [Compound 55, 3-[2-(Methyloxy)phenyl]-4-{1-[3-(methyloxy)propyl]-1H-pyrrolo[3,2-c]pyridin-3-yl}-1H-pyrrole-2,5-dione] | 115 | 0.952 | 0.919 | 0.935 | 1.1695 | 152 | – | – | –
COc1ncc(C2=C(c3cn(CCCC#N)c4ncccc34)C(=O)NC2=O)c(OC)n1 [Compound 74, 4-(3-{4-[2,4-Bis(methyloxy)pyrimidin-5-yl]-2,5-dioxo-2,5-dihydro-1H-pyrrol-3-yl}-1H-pyrrolo[2,3-b]pyridin-1-yl)butanenitrile] | 78.8 | – | – | – | – | 130 | – | – | –
O=C1NC(=O)C(c2nn(CCCO)c3ccccc23)=C1c1cn(C2CCOCC2)c2ccccc12 [Compound 78, 3-[1-(3-Hydroxypropyl)-1H-indazol-3-yl]-4-[1-(tetrahydro-2H-pyran-4-yl)-1H-indol-3-yl]-1H-pyrrole-2,5-dione] | 22 | 0.300 | 0.223 | 0.261 | 1.0282 | 154 | – | – | –
Cn1cc(C2=C(c3nn(CC(=O)NCCO)c4ccccc34)C(=O)NC2=O)c2cc(Cl)ccc21 [Compound 82, 2-{3-[4-(5-Chloro-1-methyl-1H-indol-3-yl)-2,5-dioxo-2,5-dihydro-1H-pyrrol-3-yl]-1H-indazol-1-yl}-N-(2-hydroxyethyl)acetamide] | 95 | 0.684 | 0.809 | 0.746 | 0.8929 | 131 | – | – | –
Cn1ccc(C2=C(c3cn(CCCC#N)c4ncccc34)C(=O)NC2=O)n1 [Compound 94, 4-{3-[4-(1-Methyl-1H-pyrazol-3-yl)-2,5-dioxo-2,5-dihydro-1H-pyrrol-3-yl]-1H-pyrrolo[2,3-b]pyridin-1-yl}butanenitrile] | 95 | 0.810 | 0.683 | 0.746 | 0.9819 | 146 | – | – | –
COc1ncc(C2=C(c3cn(CCc4ccccc4)c4ncccc34)C(=O)NC2=O)c(OC)n1 [Compound 98, 3-[2,4-Bis(methyloxy)pyrimidin-5-yl]-4-[1-(2-phenylethyl)-1H-pyrrolo[2,3-b]pyridin-3-yl]-1H-pyrrole-2,5-dione] | 88.1 | 0.758 | 0.575 | 0.667 | 0.6374 | 88 | – | – | –
O=C1NC(=O)C2=C1c1cn(c3ccccc13)CCOCCOCCN(Cc1ccccc1)CCn1cc2c2ccccc21 [Compound 105, 14-(Phenylmethyl)-6,7,9,10,13,14,15,16-octahydro-12H,23H-5,26:17,22-di(metheno)dibenzo[k,q]pyrrolo[3,4-n][1,4,7,10,19]dioxatriacyclohenicosine-23,25(24H)-dione] | – | 0.916 | 0.859 | 0.887 | 1.2038 | – | 124.0% | 183.8% | 1.0968 and 1.3108
O=C1NC(=O)C2=C1c1cn(c3ccccc13)CCOCCOCCN(Cc1ccco1)CCn1cc2c2ccccc21 [Compound 127, 14-(Furan-2-ylmethyl)-6,7,9,10,13,14,15,16-octahydro-12H,23H-5,26:17,22-di(metheno)dibenzo[k,q]pyrrolo[3,4-n][1,4,7,10,19]dioxatriazacyclohenicosine-23,25(24H)-dione] | – | 0.745 and 0.744 | 0.685 and 0.737 | 0.715 and 0.741 | 0.9229 and 1.0032 | – | 90.2% and 94.1% | 136.8% and 124.4% | 0.9589 and 0.8868 and 1.0442 and 0.9622
O=C1NC(=O)C2=C1c1cn(c3ccccc13)CCOCCOCCN(Cc1ccncc1)CCn1cc2c2ccccc21 [Compound 139, 14-(Pyridin-4-ylmethyl)-6,7,9,10,13,14,15,16-octahydro-12H,23H-5,26:17,22-di(metheno)dibenzo[k,q]pyrrolo[3,4-n][1,4,7,10,19]dioxatriazacyclohenicosine-23,25(24H)-dione] | – | 0.532 | 0.682 | 0.607 | 0.8650 | – | 78.3% | 115.5% | 0.9184 and 0.8116
O=C1NC(=O)C(c2cn(CCCO)c3ncccc23)=C1c1cc2ccccc2o1 [Compound 241, 3-(1-Benzofuran-2-yl)-4-[1-(3-hydroxypropyl)-1H-pyrrolo[2,3-b]pyridin-3-yl]-1H-pyrrole-2,5-dione] | 85.3 | – | – | – | – | – | – | – | –

Reference: patent US20130337564A1, “Treatment of Pluripotent Cells” (Janssen Biotech, Inc., priority 2012, published 2013)
